Test results as given in ChEMBL document CHEMBL4007391, “Tackling Fungal Resistance by Biofilm Inhibitors” (J Med Chem, 2017).
Converted amounts (≈) assume the structure as drawn.

Experiments:
Candida albicans [1] = experiment: Antibiofilm activity against Candida albicans SC5314 clinical isolates after 24 hrs by XTT assay; format: functional; conditions: Candida albicans, SC5314, 24 h
Candida albicans [2] = experiment: Antibiofilm activity against Candida albicans CAIF-100 after 24 hrs by Cell-Titer Blue assay; format: functional
Candida albicans [3] = experiment: Antibiofilm activity against Candida albicans DAY185 after 24 hrs by XTT assay; format: functional
Candida albicans [4] = experiment: Antifungal activity against Candida albicans DAY185 by CLSI method; format: functional
Candida albicans [5] = experiment: Antibiofilm activity against Candida albicans CAF2-1 after 48 hrs by Alamar blue assay; format: functional; conditions: CAF2-1, 48 h
Candida albicans [6] = experiment: Antibiofilm activity against fluconazole-resistant Candida albicans 29E clinical isolates after 48 hrs by Alamar blue assay; format: functional
Candida albicans [7] = experiment: Antibiofilm activity against Candida albicans SC5314 after 48 hrs by Alamar blue assay; format: functional; conditions: SC5314, 48 h
Candida albicans [8] = experiment: Inhibition of filament formation of tet-NRG1 expressing Candida albicans after 2 to 24 hrs; format: functional
[9] = Cytotoxicity against human HepG2 assessed as reduction in cell viability after 24 hrs by CellTiter-Glo luminescent assay; format: cell-based; conditions: HepG2 cells
Candida albicans [10] = experiment: Antibiofilm activity against Candida albicans SC5314 after 24 hrs by Cell-Titer Blue assay; format: functional
[11] = Toxicity in mouse; format: organism-based; conditions: in vivo
Candida albicans [12] = experiment: Antibiofilm activity against Candida albicans SC5314 after 24 hrs in presence of miconazole by Cell-Titer Blue assay; format: functional
[13] = tested on: Trichophyton mentagrophytes; experiment: Antifungal activity against Trichophyton mentagrophytes KCTC 6077 clinical isolates after 7 days by two fold serial dilution method; format: functional; conditions: KCTC 6077, 168 h
Cryptococcus neoformans = experiment: Antifungal activity against Cryptococcus neoformans KCTC 7224 clinical isolates after 7 days by two fold serial dilution method; format: functional; conditions: KCTC 7224, 168 h
Candida albicans [14] = experiment: Antifungal activity against Candida albicans KCTC 1940 clinical isolates after 7 days by two fold serial dilution method; format: functional; conditions: KCTC 1940, 168 h
Candida albicans [15] = experiment: Antifungal activity against Candida albicans by broth dilution assay; format: functional
Candida albicans [16] = experiment: Disruption of biofilm of Candida albicans ATCC 90028 after 48 hrs in presence of fluconazole by XTT assay; format: functional
Candida albicans [17] = experiment: Inhibition of biofilm formation of Candida albicans ATCC 90028 after 48 hrs in presence of voriconazole by XTT assay; format: functional
Candida albicans [18] = experiment: Inhibition of biofilm formation of Candida albicans ATCC 90028 after 48 hrs in presence of fluconazole by XTT assay; format: functional
Candida albicans [19] = experiment: Disruption of biofilm of Candida albicans ATCC 90028 after 48 hrs in presence of voriconazole by XTT assay; format: functional
Candida albicans [20] = experiment: Antibiofilm activity against Candida albicans SC5314 after 24 hrs by XTT assay; format: functional; conditions: SC5314, 24 h

Oc1c(I)cc(Cl)c2cccnc12 [CLIOQUINOL]
IC50 (Candida albicans [1]): 2.6 µM

CCN(CC)CCOC(=O)C1(C2CCCCC2)CCCCC1.Cl [DICYCLOMINE HYDROCHLORIDE]
MBIC50 (Candida albicans [2]): 60 µM

CCCCCCCCCC(=O)C1C(=O)N[C@@H](CC(C)C)C(=O)N[C@H](C)C(=O)N2CCC[C@H]2C(=O)N[C@@H](C(C)C)C(=O)N[C@@H](CC)C(=O)NCC1O (stereo partly specified)
IC50 (Candida albicans [3]): 5.3 µM
MIC (Candida albicans [4]): > 200 µM

CCCCCCCCCC(=O)[C@H]1C(=O)N[C@@H](CC(C)C)C(=O)N[C@H](C)C(=O)N2CCC[C@H]2C(=O)N[C@@H](C(C)C)C(=O)N[C@H]2CS[C@H]1CNC2=O
IC50 (Candida albicans [3]): > 200 µM
MIC (Candida albicans [4]): > 200 µM

CCN1/C(=C\c2ccc3ccccc3[n+]2CC)Sc2cc(C)ccc21
IC50 (Candida albicans [5]): 2.8 to 82.1 µM
IC50 (Candida albicans [6]): 2.8 to 82.1 µM
IC50 (Candida albicans [7]): 2.8 to 82.1 µM

C1CCC(C(CC2CCCCN2)C2CCCCC2)CC1.O=C(O)/C=C\C(=O)O (stereo unspecified) [PERHEXILINE MALEATE]
MBIC50 (Candida albicans [2]): 39 µM

CCN(CC)CCN1c2ccccc2Sc2ccc3ccccc3c21
IC50 (Candida albicans [8]): 3.8 µM
CC50 at 24 h [9]: 50.8 µM

CO[C@H]1C[C@@H]2CC[C@@H](C)[C@@](O)(O2)C(=O)C(=O)N2CCCC[C@H]2C(=O)O[C@H]([C@H](C)C[C@@H]2CC[C@@H](O)[C@H](OC)C2)CC(=O)[C@H](C)/C=C(\C)[C@@H](O)[C@@H](OC)C(=O)[C@H](C)C[C@H](C)/C=C/C=C/C=C/1C [SIROLIMUS]
IC50 (Candida albicans [8]): 0.514 µM
CC50 at 24 h [9]: 67.2 µM

Cc1cc(/C=C/c2ccc3cc(N(C)C)ccc3[n+]2C)c(C)n1-c1ccccc1.Cc1cc(/C=C/c2ccc3cc(N(C)C)ccc3[n+]2C)c(C)n1-c1ccccc1.O=C([O-])c1cc2ccccc2c(Cc2c(O)c(C(=O)[O-])cc3ccccc23)c1O [PYRVINIUM PAMOATE]
IC50 (Candida albicans [1]): 6.7 µM
MBEC2 (Candida albicans [10]): 3.9 µM

NC1C2CC3CC(C2)CC1C3 (stereo unspecified)
LD50 [11]: 250 mg/kg

Cc1ccccc1OCc1n(CC(=O)OC2CC(C)CCC2C(C)C)c2ccccc2[n+]1C (stereo unspecified)
IC50 (Candida albicans [5]): 9.8 to 24.3 µM
IC50 (Candida albicans [6]): 9.8 to 24.3 µM
IC50 (Candida albicans [7]): 9.8 to 24.3 µM

CCCCCCCCCC(=O)[C@@H]1C(=O)N[C@@H](CC(C)C)C(=O)N[C@H](C)C(=O)N2CCC[C@H]2C(=O)N[C@@H]([C@@H](C)CC)C(=O)N[C@H]2CS[C@H]1CNC2=O
IC50 (Candida albicans [3]): 9.1 µM
MIC (Candida albicans [4]): > 200 µM

CCC(CO)N1C(C)=CC(=Cc2sc3ccccc3[n+]2Cc2ccccc2)C=C1C (stereo unspecified)
IC50 (Candida albicans [5]): 1.7 to 119 µM
IC50 (Candida albicans [6]): 1.7 to 119 µM
IC50 (Candida albicans [7]): 1.7 to 119 µM

C[C@@H]1CC[C@H]2[C@@H](C)C(=O)O[C@@H]3O[C@@]4(C)CC[C@@H]1[C@]32OO4 [ARTEMISININ]
fractional inhibitory concentration index (FICI) (Candida albicans [12]): 0.186

Oc1c(Cl)cc(Cl)c2cccnc12 [CHLOROXINE]
IC50 (Candida albicans [1]): 2.7 µM
IC50 (Candida albicans [5]): 1.2 to 13.2 µM
IC50 (Candida albicans [6]): 1.2 to 13.2 µM
IC50 (Candida albicans [7]): 1.2 to 13.2 µM

C=CCc1ccc(O)c(-c2ccc(O)c(CC=C)c2)c1 [HONOKIOL]
MIC [13]: 25 µg/mL (≈ 93.9 µM)
MIC (Cryptococcus neoformans): 25 µg/mL (≈ 93.9 µM)
MIC (Candida albicans [14]): 16 to 32 µg/mL (≈ 60.1 to 120 µM)

COc1cc(/C=C/c2ccc(O)cc2)cc(OC)c1 [PTEROSTILBENE]
MIC80 (Candida albicans [15]): 32 µg/mL (≈ 125 µM)

CN(C)CC/C=C1/c2ccccc2Sc2ccc(Cl)cc21.Cl [CHLORPROTHIXENE HYDROCHLORIDE]
MBIC50 (Candida albicans [2]): 17 µM

CO[C@H]1O[C@@H]2O[C@@]3(C)CC[C@H]4[C@H](C)CC[C@@H]([C@H]1C)[C@@]24OO3
fractional inhibitory concentration index (FICI) (Candida albicans [12]): 0.112

CCN(CC)CCCC(C)Nc1ccnc2cc(Cl)ccc12 (stereo unspecified) [CHLOROQUINE]
fractional inhibitory concentration index (FICI) (Candida albicans [16]): 0.156 - 0.25
fractional inhibitory concentration index (FICI) (Candida albicans [17]): 0.156 - 0.25
fractional inhibitory concentration index (FICI) (Candida albicans [18]): 0.156 - 0.25
fractional inhibitory concentration index (FICI) (Candida albicans [19]): 0.156 - 0.25

CC(C)c1ccc(CN2CCCC3(CCN(CC4CCSCC4)C3)C2=O)cc1 (stereo unspecified)
IC50 (Candida albicans [20]): 3.36 µM
CC50 at 24 h [9]: 62.7 to 104 µM

CCN1/C(=C/c2ccc3cc(C)ccc3[n+]2CC)Sc2cc(C)c(C)cc21
IC50 (Candida albicans [5]): 231 to 268 µM
IC50 (Candida albicans [6]): 231 to 268 µM
IC50 (Candida albicans [7]): 231 to 268 µM

Nc1cc(S(N)(=O)=O)ccc1SSc1ccc(S(N)(=O)=O)cc1N
IC50 (Candida albicans [20]): 3.45 µM
CC50 at 24 h [9]: 106 µM

C=CCc1ccc(O)c(-c2cc(CC=C)ccc2O)c1 [MAGNOLOL]
MIC [13]: 25 µg/mL (≈ 93.9 µM)
MIC (Cryptococcus neoformans): 25 µg/mL (≈ 93.9 µM)
MIC (Candida albicans [14]): 16 to 32 µg/mL (≈ 60.1 to 120 µM)

CC[C@@]1([C@@H]2O[C@@H]([C@H]3O[C@@](O)(CO)[C@H](C)C[C@@H]3C)C[C@@H]2C)CC[C@H]([C@]2(C)CCC3(C[C@H](O)[C@@H](C)[C@@H]([C@@H](C)[C@@H](OC)[C@H](C)C(=O)O)O3)O2)O1 (stereo partly specified)
IC50 (Candida albicans [1]): 6.4 µM
